In publication PMC6829886, “Inhibition of Non-Small Cell Lung Cancer Cells by Oxy210, an Oxysterol-Derivative that Antagonizes TGFβ and Hedgehog Signaling” (Cells, 2019):

Legend:
[1] = system: TGFβ signaling in NIH3T3-E1 cells; test: TGFβ target gene expression (Q-RT-PCR) in NIH3T3 cells; assay type: cell-based, mouse; conditions: for expression of CTGF induced by TGFβ: NIH3T3 cells, TGFβ 20 ng/mL, 48 h (Figure 4e); for TGFβ inhibitory properties: statement in Discussion
Description: Total RNA was extracted with the RNeasy Plus Mini Kit from Qiagen (Hilden, Germany) according to the manufacturer’s instructions. One microgram of RNA was reverse-transcribed using an iScript Reverse Transcription Supermix from Bio-Rad Laboratories (Hercules, CA, USA) to make single-stranded cDNA. The cDNAs were then mixed with Qi SYBR Green Supermix (Bio-Rad) for quantitative RT-PCR assay using a Bio-Rad I-cycler IQ quantitative thermocycler. All PCR samples were prepared in triplicate wells in a 96-well plate. After 40 cycles of PCR, melt curves were examined in order to ensure primer specificity. Fold changes in gene expression were calculated using the ΔΔCt method. Primers used for mouse were as follows: Oaz1 (5′-CCACTGCTTCGCCAGAGAG-3′) and (5′-CCCGGACCCAGGTTACTA-3′), Gli1 (5′- […]-3′ and 5′- GCT GATCCAGCCTAAGGTTCTC-3′), Ptch1 (5′-CCATCGGCGACAAGAACC-3′ and 5′-[…]-3′), Thbs1 (5′-[…]-3′ and 5′-CGGGGATCAGGTTGGCATT-3′), Cryab (5′-[…]-3′ and 5′-[…]-3′), Egr2 (5′-[…]-3′ and 5′-[…]-3′), CTGF (5′-GGGCCTCTTCTGCGATTTC-3′ and 5′-[…]-3′).
Figure 4 Inhibition of ligand-induced Hedgehog and TGFβ signaling in mouse fibroblast cells. NIH3T3 cells were pretreated for 2 h with Oxy210 or various inhibitors as indicated in DMEM containing 5% FBS. Next, cells were treated with CAPAN-1 conditioned medium (CM) in the absence or presence of oxysterols or inhibitors. After 72 h, RNA was extracted and analyzed by Q-RT-PCR for the expression of Hh target genes Gli1 and Ptch1 and normalized to Oaz1 expression (a,b). (c,e) NIH3T3 cells were treated in DMEM containing 0.1% BCS overnight and then pretreated for 2 h with the inhibitors as indicated in DMEM containing 0.1%BCS. The cells were then treated with TGFβ (20ng/mL) in the absence or presence of the compounds. After 48 h, RNA was extracted and analyzed by Q-RT-PCR for the expression of TGFβ target genes as indicated and normalized to Oaz1 expression. (d) NIH3T3 cells cultured in 24 well-plates were transfected with a Smad response element reporter (SBE-Luciferase) plasmid and a pTK-Renilla-Luciferase plasmid. 6 hrs after transfection, cells were treated with the test agents as indicated for 48 hrs. Luciferase activity was measured and normalized to the Renilla luciferase activity. Data from a representative experiment are reported as the mean of triplicate determinations ± SD (** p < 0.01 vs. CM (a,b) or TGFβ (c,d and e) treated cells; ## p < 0.01 vs. control).

A549 cells [2] = test: Cell counting (proliferation) assay in A549 cells; assay type: cell-based, human; conditions: A549 cells, CP alone
Description: A549 and H2030 cells cultured in RPMI 1640 containing 5% FBS in 12 well-plates at 20% confluence were treated with Oxy210 for 6 days and then trypsinized, spun down and resuspended in fresh medium. For the Carboplatin (CP) and Oxy210 co-treatment experiments, A549 cells cultured in RPMI 1640 containing 2% FBS in 12 well-plates at 20% confluence were treated with CP at different concentrations in the presence or absence of Oxy210 for 6 days. For the TGFβ-induced drug resistance assay, A549 cells cultured in RPMI 1640 containing 2% FBS in 12 well-plates at 10% confluence were pre-treated with TGFβ1 alone or together with Oxy210 for 3 days, and then treated with 20 μM CP for 4 days. An aliquot of cell suspension was applied to a hemocytometer and the cells were then counted under a light microscope.
Statistical analyses were performed using the StatView 5 program (SAS Institute, Cary, NC, USA). All p values were calculated using ANOVA and Fisher’s projected least significant difference (PLSD) significance test. A value of p < 0.05 was considered significant. The IC 50 dose-response curves shown in Figure 4b and Figure 7a–c were modeled using a five-parameter logistic model. This model allows for asymmetric curves and automatically estimates the mean maximum and minimum response. Based on this model, IC 50 values were estimated corresponding to the dose halfway between min and max response. Models of dose versus response and dose versus log response were also evaluated (see Supplementary Materials). The R square statistic was computed as a measure of model fit.
Figure 7 Inhibition of NSCLC cell proliferation by Oxy210. A549 (a), (c) and H2030 (b) cells were treated with the test agents as indicated in RPMI 1640 containing 5% FBS for 5 days and then were trypsinized and counted as described in Methods and Materials section. Data from a representative experiment are reported as the mean of triplicate determinations ± SD (* p < 0.05 vs. control; ** p < 0.01 vs. control).

Human TGFBR2 = target: T1, Human TGFBR2 (Homo sapiens, UniProt P37173); test: TGFβ receptor II kinase inhibition assay (Eurofins); assay type: biochemical; conditions: vs. positive controls Cdk1/2 Inhibitor III and PKR Inhibitor
T1 construct: Human TGFBR2 (amino acid 188-end); purchased Eurofins
T1 sequence (P37173 188-567 limits assumed): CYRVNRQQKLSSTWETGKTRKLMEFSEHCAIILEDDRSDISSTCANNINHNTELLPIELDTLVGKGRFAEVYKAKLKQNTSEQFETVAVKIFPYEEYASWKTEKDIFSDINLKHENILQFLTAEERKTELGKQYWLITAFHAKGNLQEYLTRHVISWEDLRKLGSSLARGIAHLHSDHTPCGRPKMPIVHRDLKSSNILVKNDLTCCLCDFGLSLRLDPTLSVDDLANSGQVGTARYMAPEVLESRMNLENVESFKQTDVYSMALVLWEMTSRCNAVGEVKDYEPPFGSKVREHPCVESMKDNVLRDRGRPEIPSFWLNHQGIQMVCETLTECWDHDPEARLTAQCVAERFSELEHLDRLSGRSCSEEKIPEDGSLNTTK
Description: (§1) Effect of Oxy210 on inhibition of TGFβ receptors I and II kinase activity was assessed by Eurofins (Celle-L’Evescault, France). TGFBR1 (h): Human TGFBR1 (amino acid 200 to end) was incubated with 8 mM MOPS pH 7.0, 0.2 mM EDTA, 1 mM MnCl2, 2 mg/mL casein, 10 mM Magnesium acetate and […] (specific activity and concentration as required). The reaction was initiated by the addition of the Mg/ATP mix. After incubation for 40 min at room temperature, the reaction was stopped by the addition of phosphoric acid to a concentration of 0.5%. 10 μL of the reaction was then spotted onto a P30 filtermat and washed four times for 4 min in 0.425% phosphoric acid and once in methanol prior to drying and scintillation counting. TGFBR2 (h): Human TGFBR2 (amino acid 188-end) was incubated with 20 mM Tris/HCl pH 8.5, 0.2 mM EDTA, 0.33 mg/mL MBP, 10 mM Magnesium acetate and [9-33P-ATP] (specific activity and concentration as required). The reaction was initiated by the addition of the Mg/ATP mix. After incubation for 120 min at room temperature, the reaction was stopped by the addition of phosphoric acid to a concentration of 0.5%. […]
(§2) Figure 11 Inhibition of TGFβ-induced Smad2/3 phosphorylation and transcriptional activity. […] Luciferase activity was measured and normalized to the Renilla luciferase activity. […]

Human TGFBR1 = target: T2, Human TGFBR1 (Homo sapiens, UniProt P36897); test: TGFβ receptor I kinase inhibition assay (Eurofins); assay type: biochemical; conditions: vs. positive controls Cdk1/2 Inhibitor III and PKR Inhibitor
T2 construct: Human TGFBR1 (amino acid 200 to end); purchased Eurofins
T2 sequence (P36897 200-503 limits assumed): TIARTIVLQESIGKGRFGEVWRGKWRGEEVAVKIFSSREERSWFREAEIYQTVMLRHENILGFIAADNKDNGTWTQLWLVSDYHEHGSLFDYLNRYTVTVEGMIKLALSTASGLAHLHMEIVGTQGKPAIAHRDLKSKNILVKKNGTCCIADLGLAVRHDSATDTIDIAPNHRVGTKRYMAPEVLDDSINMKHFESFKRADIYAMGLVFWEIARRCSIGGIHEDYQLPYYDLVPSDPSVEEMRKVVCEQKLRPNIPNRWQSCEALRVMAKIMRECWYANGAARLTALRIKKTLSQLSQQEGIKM
Description: as §1, §2

A549 cells [3] = system: A549 cells; set-up: method as in PMID 15967103; conditions: consistent with own observations; cited from earlier work
[4] = system: TGFβ induced activity of SBE-luciferase reporter; test: SBE-luciferase (Smad response-element) reporter assay in NIH3T3-E1 cells; assay type: cell-based, mouse; conditions: 48 hrs
Description: NIH3T3-E1 cells cultured in 24 well-plates at 90% confluence were transiently transfected with 0.1 μg of Smad response-element reporter (SBE-Luciferase) plasmid (Qiagen), or with 0.1 μg of Gli response-element reporter (pGL3b-8xGli-Luciferase) plasmid, and 10 ng of pSV40-Renilla-Luciferase plasmid (Promega, Madison, WI, USA) with or without co-transfection with 10ng of Gli1 overexpression vector, pSRα-Gli1 using a Lipofectamine LTX Plus transfection reagent, as previously described [23]. […] 6 hrs after transfection, cells were treated with test agents for 72 h. […] Twenty-four hours after transfection, cells were treated with test agents for 20 h. Then the firefly and Renilla luciferase activities were measured using a dual luciferase kit (Promega) and a GloMax-96 Microplate Luminometer (Promega) or a plate reader-SpectraMax iD3 (Molecular Devices, San Jose, CA, USA). The firefly luciferase activities were normalized to the Renilla luciferase activities.

[5] = Metabolic stability in mouse liver microsomes; assay type: in vitro ADME
Smo = system: Smo; set-up: method as in PMID 24591126; conditions: cited from earlier work
[6] = Metabolic stability in human liver microsomes; assay type: in vitro ADME

Structure (SMILES): CS(=O)(=O)c1ccc(C(=O)Nc2ccc(Cl)c(-c3ccccn3)c2)c(Cl)c1 [GDC0449]
- expression of CTGF induced by TGFβ [1]: only Oxy210 robustly inhibited

Structure (SMILES): [NH2][Pt]1([NH2])[O]C(=O)C2(CCC2)C(=O)[O]1 [CP, Carboplatin, reference compound]
- IC10 Estimate, dataset 4.1 - Fig 7c - CP (A549 cells [2]; original scale Y): 0.66 µM
- IC90 (A549 cells [2]; original scale Y, read-out: IC90 Estimate, dataset 4.1 - Fig 7c - CP): 40.7 µM
- IC50 (A549 cells [2]; ± SE, read-out: IC50 of CP): 6.72 ± 0.72 µM

Structure (SMILES): C[C@]12CC[C@H](O)C[C@@H]1CC[C@@H]1[C@@H]2CC[C@@]2(C)[C@H]1CC[C@@H]2[C@](C)(O)CCc1ccc(F)cc1 [Oxy186, reference compound]
- expression of CTGF induced by TGFβ [1]: only Oxy210 robustly inhibited
- TGFβ inhibitory properties [1]: devoid of TGFβ inhibitory properties
- inhibitory activity on TβRII in functional kinase assay (Human TGFBR2): did not display significant inhibitory activity
- inhibitory activity on TβRI in functional kinase assay (Human TGFBR1): did not display significant inhibitory activity

Structure (SMILES): NC(=O)c1ccc(-c2nc(-c3ccc4c(c3)OCO4)c(-c3ccccn3)[nH]2)cc1 [SB431542, reference compound]
- effect on proliferation of A549 cells (A549 cells [3]): does not lessen the proliferation of A549 cells
- TGFβ induced activity of SBE-luciferase reporter [4]: significantly inhibited

Structure (SMILES): CC(C)CC[C@@H](O)[C@](C)(O)[C@H]1CC[C@H]2[C@@H]3CC=C4C[C@@H](O)CC[C@]4(C)[C@H]3CC[C@]12C [Oxy16, (2R,3R)-2-((3S,8S,9S,10R,13S,14S,17S)-3-hydroxy-10,13-dimethyl-2,3,4,7,8,9,10,11,12,13,14,15,16,17-tetradecahydro-1H-cyclopenta[a]phenanthren-17-yl)-6-methylheptane-2,3-diol, reference compound]
- remaining at 1 h ([5]; read-out: MLM, % Remaining after 60 min): 5%
- half-life ([5]; read-out: MLM, Half-Life): 14 min
- Smo binding affinity (Smo): lack of detectable Smo binding affinity
- half-life ([6]; human, liver microsomes, read-out: HLM, Half-Life): < 15 min
- remaining at 1 h ([6]; read-out: HLM, % Remaining after 60 min): 6%
- TGFβ inhibitory properties [1]: devoid of TGFβ inhibitory properties
